Reference: patent US10576085B2, “Substituted aminopurine compounds, compositions thereof, and methods of treatment therewith” (Signal Pharmaceuticals, LLC, priority 2016, dated 2020)

Tests used:
Assay in all cases: Proliferation, CellTiter-Glo, 72 h
Format in all cases: cell-based
Colo 205 = conditions: Homo sapiens; Colo 205, CRC; BRAF (V600E); β-catenin status N/A
Experimental: HCC cell lines were treated with DMSO or increasing concentrations of Compound 1 for 72 h. Specifically, Compound 1 at various concentrations in dimethyl sulfoxide (DMSO) was spotted via an acoustic dispenser (EDC ATS-100) into an empty 384-well plate. Compound 1 was spotted in a 10-point serial dilution fashion (3-fold dilution) in duplicate within the plate. Replicates of plates spotted with Compound 1 were made for use with different cell lines. After compound plate replication, all plates were sealed (Agilent ThermoLoc) and stored at −20° C. for up to 1 month. When ready for testing, plates were removed from the freezer, thawed, and unsealed just prior to the addition of the test cells.
Prior to testing, cells were grown and expanded in culture flasks to provide sufficient amounts of starting material. Cells were then diluted to the appropriate densities and added directly to the compound-spotted 384-well plates. […] At the time when compound was added (t0), initial cell number was assessed via a viability assay (Cell Titer-Glo) by quantifying the level of luminescence generated by ATP present in viable cells. After 72 h, cell viability of compound-treated cells was assessed via Cell Titer-Glo and luminescence measurement. The apoptotic response to Compound 1 was assessed by quantifying the activities of caspase 3 and caspase 7 (Caspase 3/7-Glo) in treated cells and DMSO control cells. […]

SW48 = conditions: Homo sapiens; SW48, CRC; CTNNB1 (S33Y); EGFR (G179S); β-catenin Active
AGS = conditions: Homo sapiens, Gastric, CTNNB1 (G43E), KRAS (G12D), β-catenin Active

What does the source list for C[C@]1(C(N)=O)CC[C@@H](n2c(Nc3c(Cl)cc(Cl)cc3Cl)nc3cnc(N[C@@H]4CCOC[C@H]4F)nc32)CC1 [Compound 1, cis-4-[2-{[(3S,4R)-3-fluorooxan-4-yl]amino}-8-(2,4,6-trichloroanilino)-9H-purin-9-yl]-1-methyl cyclohexane-1-carboxamide]?
IC50 (Colo 205): 36 nM; IC50 (SW48): 9 nM; IC50 (AGS): 28 nM
